# Results from patent US11441142B2, “FLS variant having increased activity” (KONKUK UNIVERSITY INDUSTRIAL COOPERATION CORPORATION, priority 2017, dated 2022).
# Substitutions are numbered along the chain they refer to.
# What was measured:
# Type in all cases: biochemical
# [1] = target: T1, Pseudomonas fluorescens FLS (formolase), wild type, SEQ ID NO: 8 (Pseudomonas fluorescens, UniProt Q9F4L3, A28I/A394G/A480W/G419N/L90T/R188H/W89R); test: kinetic parameters of FLS; conditions: substrate acetaldehyde, coenzyme TPP (0.1 mM), pH 8.0, room temperature
# T1 sequence (Q9F4L3 1-563 A28I/A394G/A480W/G419N/L90T/R188H/W89R): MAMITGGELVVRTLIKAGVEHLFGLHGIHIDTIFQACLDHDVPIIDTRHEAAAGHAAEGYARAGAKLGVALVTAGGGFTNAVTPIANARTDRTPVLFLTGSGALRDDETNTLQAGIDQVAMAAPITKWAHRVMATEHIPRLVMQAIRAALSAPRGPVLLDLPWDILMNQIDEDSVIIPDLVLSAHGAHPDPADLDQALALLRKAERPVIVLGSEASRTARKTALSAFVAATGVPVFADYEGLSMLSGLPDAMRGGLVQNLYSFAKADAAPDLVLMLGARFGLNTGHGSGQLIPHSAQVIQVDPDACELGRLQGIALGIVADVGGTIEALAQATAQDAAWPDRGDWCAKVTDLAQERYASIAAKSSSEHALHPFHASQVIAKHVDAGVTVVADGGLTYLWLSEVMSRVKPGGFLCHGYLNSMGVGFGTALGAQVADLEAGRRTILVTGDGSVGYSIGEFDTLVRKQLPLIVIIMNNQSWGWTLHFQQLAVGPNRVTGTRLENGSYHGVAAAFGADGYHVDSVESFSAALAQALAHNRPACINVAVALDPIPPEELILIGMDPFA
# Protocol: (§1) The kinetic parameters of EtDH and EtDH:D46G were identified by reacting the EtDH and EtDH:D46G with a reaction mixture containing 100 mM glycine-NaOH buffer solution (pH 9.5), 5 mM Mg^2+, 3 mM NAD^+/NADP^+ and 0.5 to 100 mM ethanol at room temperature. The kinetic parameters of FLS and variants thereof were identified by reacting FLS and variants thereof with a reaction mixture containing 100 mM phosphate buffer solution (pH 8.0), 1 mM Mg^+, 0.1 mM TPP and 0.5 to 20 mM acetaldehyde at room temperature. The kinetic parameters of BDH and BDH:S199A were identified by reacting BDH and BDH:S199A with a reaction mixture containing 50 mM Tris-HCl buffer solution (pH 7.5), 0.2 mM NADPH, 1 mM DTT; 0.5 to 100 mM acetoin or 0.5 to 10 mM butanone at room temperature. The Km and kcat values were identified using nonlinear regression fitting of the Michaelis-Menten equation and the fitting were repeated three times.
# (§2) In order to compare the catalytic efficiencies via measurement of kinetic parameters of cascade enzymes and variants thereof in accordance with the present disclosure, the following experiment was performed. Specifically, the kinetic parameters of EtDH and EtDH:D46G were identified by reacting EtDH and EtDH:D46G with a reaction mixture containing 100 mM glycine-NaOH buffer solution (pH 9.5), 5 mM Mg^2+, 3 mM NAD^+/NADP^+ and 0.5 to 100 mM ethanol at room temperature. […]
# [2] = target: T2, Pseudomonas fluorescens FLS (formolase) variant FLS:L482S, SEQ ID NO: 10 (Pseudomonas fluorescens, UniProt Q9F4L3, A28I/A394G/A480W/G419N/L482S/L90T/R188H/W89R); test: kinetic parameters of FLS:L482S; conditions: substrate acetaldehyde
# T2 sequence (Q9F4L3 1-563 A28I/A394G/A480W/G419N/L482S/L90T/R188H/W89R): T1 sequence (Q9F4L3 1-563 A28I/A394G/A480W/G419N/L90T/R188H/W89R) with L482S
# Protocol: as §1, §2
# [3] = target: T3, Pseudomonas fluorescens FLS (formolase) variant FLS:L482R, SEQ ID NO: 11 (Pseudomonas fluorescens, UniProt Q9F4L3, A28I/A394G/A480W/G419N/L482R/L90T/R188H/W89R); test: kinetic parameters of FLS:L482R; conditions: substrate acetaldehyde
# T3 sequence (Q9F4L3 1-563 A28I/A394G/A480W/G419N/L482R/L90T/R188H/W89R): T1 sequence (Q9F4L3 1-563 A28I/A394G/A480W/G419N/L90T/R188H/W89R) with L482R
# Protocol: as §1, §2
# [4] = target: T4, Pseudomonas fluorescens FLS (formolase) variant FLS:L482E, SEQ ID NO: 12 (Pseudomonas fluorescens, UniProt Q9F4L3, A28I/A394G/A480W/G419N/L482E/L90T/R188H/W89R); test: kinetic parameters of FLS:L482E; conditions: substrate acetaldehyde, coenzyme TPP (0.1 mM), pH 8.0, room temperature
# T4 sequence (Q9F4L3 1-563 A28I/A394G/A480W/G419N/L482E/L90T/R188H/W89R): T1 sequence (Q9F4L3 1-563 A28I/A394G/A480W/G419N/L90T/R188H/W89R) with L482E
# Protocol: as §1, §2
# [5] = system: Pseudomonas fluorescens FLS (formolase) variant FLS:L482E, SEQ ID NO: 12; test: kinetic parameters of FLS:L482E; conditions: substrate acetaldehyde, coenzyme TPP
# Protocol: as §1, §2
# [6] = coenzyme TPP (0.1 mM), pH 8.0, room temperature
structure (smiles),measurement,setting,value
CC=O [Acetaldehyde],kcat/Km,[1],7.69 M⁻¹ s⁻¹
same,increase of catalyst efficiency (kcat/Km) compared to wild-type FLS,[2]; coenzyme TPP,72.95%
same,kcat/Km,[2]; [6],13.3 M⁻¹ s⁻¹
same,increase of catalyst efficiency (kcat/Km) compared to wild-type FLS,[3]; coenzyme TPP,37.84%
same,kcat/Km,[3]; [6],10.6 M⁻¹ s⁻¹
same,kcat/Km,[4],9.66 M⁻¹ s⁻¹
same,increase of catalyst efficiency (kcat/Km) compared to wild-type FLS,[5],25.62%
